Peptide text beside a SMILES is read from it. * marks the point of attachment. Cbz = O=C(OCc1ccccc1)*
Legend:
[1] = tested on: IMR90 cells; assay: Senolysis / cell death of young and Ras-induced senescent IMR90 cells; type: cell-based, human
Text: Ras gene with oncogenic mutation was introduced into young cells (within 1 month of continuous culture) of IMR90 cells by retroviral infection to acquire senescent cells. […] The control received only DMSO treatment. Representative images of cells observed under a microscope are shown (FIG. 11).
An oncogenic mutated Ras gene was introduced into young cells (within 1 month of continuous culture) of IMR90 cells by retroviral infection to acquire stress-induced senescent cells. The young cells and the senescent cells were both treated with different concentrations of the RSK kinase inhibitor BI-D1870 for 96 hours to evaluate cell death.
An oncogenic mutated Ras gene was introduced into young cells (within 1 month of continuous culture) of IMR90 cells by retroviral infection to acquire stress-induced senescent cells. The young cells and the senescent cells of IMR90 were both transfected with an RSK1 siRNA (two types of siRNA #1 (SEQ ID NO: 7) or #2 (SEQ ID NO: 8) having different target sequences) or a control to knock down RSK1. Representative images of cells observed under a microscope are shown (upper diagram in FIG. 20).
An oncogenic Ras was introduced into young cells (within 1 month of continuous culture) of IMR90 cells to induce senescent cells (OIS). The young cells and the senescent cells of IMR90 were transfected with two HIF-2α-specific siRNAs (SEQ ID NO: 9 and SEQ ID NO: 10) having different target sequences to knock down HIF-2α.
An oncogenic Ras was introduced into young cells (within 1 month of continuous culture) of IMR90 cells to induce senescent cells (OIS). The young cells and the senescent cells of IMR90 were transfected with a BIM-specific siRNA to knock down BIM.
An oncogenic Ras was introduced into young cells (within 1 month of continuous culture) of IMR90 cells to induce senescent cells (OIS). In the young cells and the senescent cells of IMR90, HIF-2α alone or both HIF-2α and BIM were knocked down by using their respective specific siRNAs (SEQ ID NO: 9, SEQ ID NO: 10), and cell death was confirmed (FIG. 28).
The latter information consists of 12,655 ChIP datasets from 903 antigens (transcription factors and epigenetic regulators).

[2] = tested on: HIF-2α; assay: HIF-2α protein (Western blot) and mRNA expression in IMR90 cells; type: cell-based, human
Text: As a result, it was observed that the HIF-2α protein decreased in the nutlin 3b-treated group and the BI-D1870-treated group (upper diagram and lower diagram in FIG. 22).
An oncogenic Ras was introduced into young cells (within 1 month of continuous culture) of IMR90 cells to induce senescent cells (OIS). […] It is known that ubiquitination is induced by phosphorylation in the vicinity of a ubiquitination site (Hagai et al., 2012). The consensus sequences (K/R-K/R-x-x-S/T) for phosphorylation by Chk1 located at the N-terminus of HIF-2α were conserved, and these were named Motif1 (including Ser12 residues) and Motif2 (including Ser19 residues) (FIG. 40, SEQ ID NOs: 77 to 81).

[3] = tested on: PGAM-Chk1 kinase binding; conditions: cancer cells; Mikawa et al., 2020; cited from earlier work
[4] = tested on: human fibroblasts; assay: Lactate treatment of human fibroblasts; type: cell-based
Experimental: In order to explore the physiological significance of enhanced glycolysis in senescence, a conditioned medium consisting of senescent cells and non-senescent cells was prepared and added to human fibroblasts at the early passage. PGAM-Chk1 interaction was potentiated by culture supernatant from the senescent cells, but not potentiated in the control (FIG. 44). It was considered from this that a component potentiating the PGAM-Chk1 interaction was included in the culture supernatant from the senescent cells. Lactate was considered to be a candidate for such a component, and human fibroblasts were treated with lactate. […] GPR81 signaling is known to be partially involved in oncogenic modules including the Ras pathway (Ohno et al., 2018). In senescent cells or lactate-treated cells, it was observed that RSK1 kinase, which is downstream of the Ras pathway, was activated, accompanied by phosphorylation of Ser280 of Chk1 (Li et al., 2012), which is a known target of RSK (FIG. 49).

[5] = tested on: IMR90 cells; assay: Secondary screening: senolytic activity, young vs senescent IMR90 cells, crystal violet; type: cell-based, human; conditions: young vs Ras-induced senescent IMR90 cells; 5 μM and 10 μM; 72 hours; criterion of positivity 1.14 or more
Experimental: In the secondary screening, the agent sensitivity of young IMR90 cells and senescent IMR90 cells was compared. The senescent IMR90 cells were prepared by inducing an oncogenic Ras mutation. The young cells and the senescent cells were each seeded in a 96-well plate, and two days later, the candidate drugs obtained from the primary screening were treated at two concentrations of 5 μM and 10 μM. Surviving cells after 72 hours were fixed with formalin and stained with crystal violet. After that, crystal violet in each well was extracted with 2% Triton X100 and quantified (FIG. 31-1 and FIG. 31-2). Young cells and senescent cells were each treated with a solvent (DMSO), and the resulting cells were used as a negative control, and the survival rate compared to the negative control was calculated by the following expression. Furthermore, the agent sensitivity of the young cells and the senescent cells was compared and evaluated as senolytic activity (young cell viability/senescent cell viability). The criterion of positivity was a senolytic activity of 1.14 or more.
Viability(%)=(Sample/negative subject)×100
Senolytic activity=young cell viability/senescent cell viability

[6] = human fibroblasts treated with lactate

Molecule	senolytic activity (young cell viability/senescent cell viability) [5]	further results
CC(C)CCN1c2nc(Nc3cc(F)c(O)c(F)c3)ncc2N(C)C(=O)C1C (stereo not drawn) [BI-D1870]		senolytic effect (cell death) ([1]; young and senescent IMR90 cells, 96 hours, 10 μM or 20 μM): remarkable senolytic effect; HIF-2α protein ([2]; young and senescent cells, different concentrations for 96 hours): decreased; PGAM-Chk1 kinase binding [3]: inhibited; glycolytic metabolism [3]: decreased
CC(C)C[C@@H](C=O)NC(=O)[C@H](CC(C)C)NC(=O)[C@H](CC(C)C)NC(=O)OCc1ccccc1 [MG132] (Cbz-Leu-Leu-Leu-aldehyde)		HIF-2α protein level under nutlin 3b treatment ([2]; senescent (OIS) IMR90 cells treated with nutlin 3b plus proteasome inhibitor): remarkably restored
CC(O)C(=O)O (stereo not drawn) [lactate]		SASP expression [4, 6]: stimulated; accumulation of HIF-2α [4, 6]: observed in a lactate concentration-dependent manner; enhancement of PGAM-Chk1 interaction [4, 6]: observed in a lactate concentration-dependent manner; p21 level vs control [4, 6]: did not provide a difference; phosphorylation of Ser12 of HIF-2α [4, 6]: observed in a lactate concentration-dependent manner; RSK1 kinase activation (accompanied by phosphorylation of Ser280 of Chk1) ([4]; lactate-treated cells): activated
CC(/C=C/C(=O)NO)=C\[C@@H](C)C(=O)c1ccc(N(C)C)cc1 [Trichostatin A (TSA), Trichostatin A]	have senolytic activity	
CC(C)c1ccccc1Cc1cc(C(=O)Nc2ccc(S(=O)(=O)c3ccccc3C(C)(C)C)cc2)c(O)c(O)c1O [TW-37]	have senolytic activity	
C[S+]([O-])c1ccc(-c2nc(-c3ccncc3)c(-c3ccc(F)cc3)[nH]2)cc1 (stereo not drawn) [SB203580]	have senolytic activity	
COC(=O)c1ccc2c(c1)NC(=O)/C2=C(\Nc1ccc(N(C)C(=O)CN2CCN(C)CC2)cc1)c1ccccc1 [Vargatef]	have senolytic activity	
COc1ccc(-c2ccc3c(N4CCOC[C@@H]4C)nc(N4CCOC[C@@H]4C)nc3n2)cc1CO [AZD8055]	have senolytic activity	
COc1ccc(-c2ccc3c(N4CCOCC4)nc(N4C[C@@H](C)O[C@@H](C)C4)nc3n2)cc1CO [KU-0063794]	have senolytic activity	
CC(C)c1cc(-c2ccc(F)c3ccccc23)nc(N)n1 [RS-127445]	have senolytic activity	
CN(C)C1CCN(C(=O)c2ccc(NC(=O)Nc3ccc(-c4nc(N5CCOCC5)nc(N5CCOCC5)n4)cc3)cc2)CC1 [PF-05212384]	have senolytic activity	
CC[C@H](C)C(=O)O[C@H]1CCC=C2C=C[C@H](C)[C@H](CC[C@@H]3C[C@@H](O)CC(=O)O3)[C@H]21 [Mevastatin]	have senolytic activity	
O=C(O)c1ccc2c(c1)nc(Nc1cccc(Cl)c1)c1ccncc12 [CX-4945]	have senolytic activity	
Verteporfin	have senolytic activity	
Cc1ccc2nc(NCCN)c3ncc(C)n3c2c1 [BMS-345541]	have senolytic activity	
CC(C)[C@H](NC(=O)c1ccc2ccccc2n1)C(=O)N[C@@H](CC(=O)O)C(=O)COc1c(F)cccc1F [QVD-Oph]		viability of senescent cells under nutlin 3b treatment ([1]; senescent cells, nutlin 3b plus apoptosis inhibitor): restored
Cc1ccc(C(=O)Nc2cccc(C(F)(F)F)c2)cc1Nc1nc(-c2cccnc2)nc2c1cnn2C [NVP-BHG712]	have senolytic activity	
CCOc1cc2ncc(C#N)c(Nc3ccc(OCc4ccccn4)c(Cl)c3)c2cc1NC(=O)/C=C/CN(C)C [Neratinib]	have senolytic activity	
Cc1ccc(-n2nc(C(C)(C)C)cc2NC(=O)Nc2ccc(OCCN3CCOCC3)c3ccccc23)cc1 [Doramapimod (BIRB 796), Doramapimod]	have senolytic activity	

— patent US20250003952A1, “SENOLYTIC DRUG SCREENING METHOD AND SENOLYTIC DRUG” (KYOTO UNIVERSITY, priority 2021, published 2025)
